Molecular target: T1, human Focal Adhesion Kinase (FAK) (Homo sapiens, UniProt Q05397)
T1 construct: FAK (full length human cDNA described by Andre et al); 6-histidine tag (N); made in house; host or cells: Sf21 insect cells (baculovirus, pFastbac 1)
Experiment: FAK3 Kinase Inhibition Assay
Assay type: biochemical
Conditions: in vitro enzyme assay, Poly (Glu, Ala, Tyr) substrate; read-out: FAK inhibitory activity IC50
From the text: FAK3 Kinase Inhibition Assay
This assay determines the ability of a test compound to inhibit tyrosine kinase activity of human Focal Adhesion Kinase (FAK).
DNA encoding FAK is obtained by total gene synthesis (Edwards M, International Biotechnology Lab 5(3), 19-25, 1987) or by cloning. These are then expressed in a suitable expression system to obtain polypeptide with tyrosine kinase activity.
Active FAK protein has been previously expressed in a baculovirus system using a similar N-terminal 6-histidine tag (Protein Expression And Purification, 1996, 7: 12-18). The human FAK cDNA was cloned into the baculovirus transplacement vector, pFastbac 1 (Life Technologies), and the recombinant construct was co-transfected into insect cells (for example Spodoptera frugiperda 21(Sf21)) with viral DNA to prepare recombinant baculovirus (details of the methods for the assembly of recombinant DNA molecules and the preparation and use of recombinant baculovirus can be found in standard texts for example Sambrook et al, 1989, Molecular cloning—A Laboratory Manual, 2nd edition, Cold Spring Harbour Laboratory Press and O'Reilly et al, 1992, Baculovirus Expression Vectors—A Laboratory Manual, W.H. Freeman and Co, New York. Details specific to the use of the pFastbac (‘Bac to Bac’) system are provided in Anderson et al., 1995, FOCUS (Life Technologies Bulletin Magazine), 17, p53.) […]

T1 sequence (Q05397 whole entry): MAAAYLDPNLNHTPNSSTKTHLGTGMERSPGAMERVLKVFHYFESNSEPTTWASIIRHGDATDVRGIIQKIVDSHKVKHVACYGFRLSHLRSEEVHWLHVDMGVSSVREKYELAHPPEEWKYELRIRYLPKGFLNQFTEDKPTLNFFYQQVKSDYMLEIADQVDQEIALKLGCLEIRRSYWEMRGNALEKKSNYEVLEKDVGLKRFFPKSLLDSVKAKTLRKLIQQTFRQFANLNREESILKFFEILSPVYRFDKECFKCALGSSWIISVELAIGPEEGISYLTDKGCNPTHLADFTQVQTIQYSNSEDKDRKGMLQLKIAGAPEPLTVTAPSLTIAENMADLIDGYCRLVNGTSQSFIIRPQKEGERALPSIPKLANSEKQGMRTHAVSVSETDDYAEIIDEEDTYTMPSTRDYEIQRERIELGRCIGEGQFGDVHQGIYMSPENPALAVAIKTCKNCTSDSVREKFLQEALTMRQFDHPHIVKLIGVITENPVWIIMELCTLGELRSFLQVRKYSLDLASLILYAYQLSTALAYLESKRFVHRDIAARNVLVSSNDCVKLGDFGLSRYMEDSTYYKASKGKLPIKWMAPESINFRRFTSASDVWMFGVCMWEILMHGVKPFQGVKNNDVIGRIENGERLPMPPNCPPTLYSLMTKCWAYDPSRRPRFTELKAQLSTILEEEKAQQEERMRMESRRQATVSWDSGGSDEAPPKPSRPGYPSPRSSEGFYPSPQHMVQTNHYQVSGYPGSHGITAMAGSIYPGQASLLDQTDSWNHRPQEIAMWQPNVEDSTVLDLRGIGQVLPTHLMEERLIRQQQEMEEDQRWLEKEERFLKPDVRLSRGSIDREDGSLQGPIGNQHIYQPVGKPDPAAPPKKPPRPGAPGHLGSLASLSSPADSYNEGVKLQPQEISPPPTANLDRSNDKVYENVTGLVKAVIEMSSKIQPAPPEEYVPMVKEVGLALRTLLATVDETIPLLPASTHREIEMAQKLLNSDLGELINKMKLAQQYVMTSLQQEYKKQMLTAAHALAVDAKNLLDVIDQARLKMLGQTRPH

CN(C)CC(O)COc1ccc(Nc2nccc(N3CCc4cc(Br)ccc43)n2)cc1 (stereo not shown) [Example 3]
IC50: 553 nM

From patent US6716831B1, “2,4-diamino-pyrimidine deprivatives having anti-cell proliferative activity” (AstraZeneca AB, priority 1999, dated 2004)
